Laboratory results from patent publication US20180147175A1, “COMPOSITIONS AND METHODS FOR TREATMENT OF MOVEMENT DISORDERS” (ULTRAGENYX PHARMACEUTICAL INC., priority 2015, published 2018).
“Also recorded” adds a separate entry of the source.

Key:
[1] = system: brain response to cortical activation; test: Functional 31P-NMR spectroscopy (f-MRS) of brain, Pi/PCr ratio during visual activation; assay type: in vivo, human
Protocol: Functional ^31P-NMR spectroscopy (f-MRS) was performed at 3 T at the end of each study phase in patients >15 years old (n=5). Data were collected for 4 minutes at rest, 8 minutes during visual activation, 8 minutes after stimulation, and analyzed as described (Adanyeguh et al., 2015, Neurology 84: 490-495 and Mochel et al., 2012, Mov Disord. 27: 907-910). The ratio of Pi/PCr was calculated to determine the brain response to cortical activation.
(§1) Paired t-tests were used for plasma analyses before and after treatment. For clinical parameters, Friedman tests were used to test the global hypothesis that all study phases were equal. If significant, Wilcoxon signed-rank tests were applied for pair-wise phase comparisons with an alpha of 0.05. For the Pi/PCr ratio, repeated measures ANOVA were used to test the global hypothesis that all time points—rest, activation and recovery—were equal. If significant, paired t-tests were applied for pair-wise time comparisons with an alpha of 0.05.

[2] = system: GLUT1-DS patients with non-epileptic paroxysmal manifestations; test: Open-label pilot study in GLUT1-DS patients: paroxysmal events diary and clinical scales; assay type: in vivo, human
Excerpt: This example describes an open-label pilot study with four phases of 2 months each (baseline, treatment […], and resumption of treatment) in eight GLUT1-DS patients (7-47 years old) with non-epileptic paroxysmal manifestations.
Participants were enrolled in an interventional clinical protocol. Four children and four adults with GLUT1-DS were enrolled. […] All patients were on a normal diet prior to their enrollment. As noted above, the study was divided into four phases of 2 months each (baseline, treatment, withdrawal, and resumption of treatment). A trained dietitian determined patients' caloric intake and adapted the daily menus so the diets remained isocaloric when triheptanoin was introduced.
A comprehensive diary was kept for each patient to record all motor and non-motor paroxysmal events—including dystonia, tremor, speech disorder, stiffness, paresis, headaches, confusion, and lethargy. At each visit, patients were evaluated with a six minute walk test (6MWT), a nine-hole pegboard test (NHPT), the clinical global impression-improvement scale (CGI-I) and a fatigue severity scale (KFFS or visual analogue scale for patients <15 years old). Blood samples were collected after an overnight fast for standard analyses, and the measurement of plasma C3-carnitine and C5-ketone bodies (Mochel et al., 2005, Molecular Genetics and Metabolism 84: 305-312).
as §1

Compound: CCCCCCC(=O)OCC(COC(=O)CCCCCC)OC(=O)CCCCCC [triheptanoin]
- f-MRS bioenergetics profile ([1]; after 2 months on triheptanoin, ANOVA p=0.014, patients >15 years, n=5): corrected; also recorded: normalized
- f-MRS profile ([1]; after treatment withdrawal): came back abnormal
- tolerability ([2]; 1 g/kg/day oral, all patients): well tolerated
- paroxysmal manifestations ([2]; after treatment was resumed): dropped significantly
- non-epileptic paroxysmal manifestations (FIG. 1) ([2]; treated 2 months and on resumption, p<0.05): significant reduction
- average number of dystonic events ([2]; treated 2 months, 1 g/kg/day oral, n=6, baseline 16 (±19, 1-54)): 2
- average number of paroxysmal manifestations ([2]; treated 2 months, 1 g/kg/day oral, n=6, baseline average 31 (±28, 10-85), p=0.028): 3 (±3, 0-7)
- performance during the 6MWT and NHPT ([2]; treatment phase): unchanged
- CGI-I scale ([2]; treatment phase, all patients): much improved
- fatigue score ([2]; treatment phase, did not reach significance): tended to improve
- fatigue score ([2]; withdrawal phase): worsened
- average number of dystonic events ([2]; withdrawal phase, 2 months): 13
- average number of paroxysmal manifestations ([2]; withdrawal phase, 2 months, p=0.043): 24
- CGI-I scale ([2]; withdrawal phase, five out of six patients): much worse
